Source: patent US20240140991A1, “ANTIBIOTIC NATURAL PRODUCT ANALOGUES” (THE QUEEN'S UNIVERSITY OF BELFAST, priority 2021, published 2024)
In brackets after ≈: the same amount, converted by molar mass. Positions of bridges follow the written chain, without caps; N, C: chain ends. Non-standard residues stand in square brackets, D forms with d. Residues, ends and D or L forms follow the SMILES beside them. ξ: configuration not given here. *: point of attachment. Octanoyl(7-Me) = CC(C)CCCCCC(=O)*; Hexanoyl(4ξ-Me) = CCC(C)CCC(=O)*; dOrn = NCCC[C@@H](N)C(=O)O; Orn = NCCC[C@H](N)C(=O)O; Dap = NC[C@H](N)C(=O)O

Tests used:
P. aeruginosa PAO1 = assay type: cell-based, Pseudomonas aeruginosa; details: PAO1
Experimental: (§1) Minimum inhibitory concentration (MIC) was determined by broth microdilution according to CLSI guidelines. Blood agar plates were inoculated with glycerol stocks of Escherichia coli ATCC 25922, E. coli ATCC 25922 MCR-1, E. coli MCR-1 (clinical isolate from Utrecht Medical Center, NL), E. coli EQAS MCR-2 (clinical isolate from Wageningen University and Research, NL), Kiebsielia pneumoniae ATCC 11228, K. pneumoniae ATCC 13883, K. pneumonia 2048 (clinical isolate from Vrije Universiteit Amsterdam Medical Center, NL), K. pneumonia JS-123 (clinical isolate from Utrecht Medical Center, NL), Acinetobacter baumannii ATCC 17961, A. baumannil ATCC 17978, A. baumannii 2018-006 (clinical isolate from Rijksinstituut voor Volksgezondheid en Milieu, NL), A. baumannii MDR (clinical isolate from Vrije Universiteit Amsterdam Medical Center, NL), Pseudomonas aeruginosa ATCC 27853, P. aeruginosa PAO1, P. aeruginosa NRZ-03961 (Reference strain from Das Nationale Referenzzentrum für gramnegative Krankenhauserreger, DE), P. aeruginosa M-120 (clinical isolate from Leiden University Medical Center, NL) and Staphylococcus aureus USA300 (clinical isolate from Texas Children's Hospitalm, USA). E. coli 25922 MCR1 was grown on LB agar supplemented with kanamycin. The inoculated agar plates were then incubated for 16 hours at 37° C. Individually grown colonies were subsequently used to inoculate 3 mL aliquots of TSB that were then incubated at 37° C. with shaking at 220 rpm. In parallel, the compounds to be assessed were serially diluted with Mueller-Hinton broth (MHB) in polypropylene 96-well plates (50 μL in each well). Once the OD600 of the bacterial suspensions reached 0.5, the bacteria were diluted with MHB (final concentration 2×10^5 CFU mL^−1) and added to the microplates containing the test compounds (50 μL to each well, final volume: 100 μL). The well-plates were sealed with an adhesive membrane and after 16 hours of incubation at 37° C. with shaking at 220 rpm the wells were visually inspected for bacterial growth. MIC values were defined as the lowest concentration of the compound that prevented visible growth of bacteria.

P. aeruginosa M-120 = assay type: cell-based, Pseudomonas aeruginosa; details: M-120
Experimental: as §1

P. aeruginosa NRZ-03961 = assay type: cell-based, Pseudomonas aeruginosa; details: NRZ-03961
Experimental: as §1

A. baumannii 2018-006 = assay type: cell-based, Acinetobacter baumannii; details: 2018-006
Experimental: as §1

A. baumannii ATCC 17978 = assay type: cell-based, Acinetobacter baumannii; details: ATCC 17978
Experimental: as §1

K. pneumoniae JS-123 = assay type: cell-based, Klebsiella pneumoniae; details: JS-123
Experimental: as §1

K. pneumoniae 2048 = assay type: cell-based, Klebsiella pneumoniae; details: 2048
Experimental: as §1

K. pneumoniae ATCC 13883 = assay type: cell-based, Klebsiella pneumoniae; details: ATCC 13883
Experimental: as §1

K. pneumoniae ATCC 11228 = assay type: cell-based, Klebsiella pneumoniae; details: ATCC 11228
Experimental: as §1

[1] = test system: Pseudomonas aeruginosa ATCC 27853; assay type: cell-based; details: ATCC 27853
How it was run: (§2)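 Broth microdilution in MHB per CLSI; inoculum 2×10^5 CFU mL^−1 from log-phase TSB cultures at OD600 0.5. Plates incubated 16 hours at 37° C with shaking at 220 rpm. MIC is the lowest concentration preventing visible growth.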

[2] = test system: Acinetobacter baumannii ATCC 17961; assay type: cell-based; details: ATCC 17961
How it was run: as §2

[3] = test system: Staphylococcus aureus USA300; assay type: cell-based; details: USA300
How it was run: as §2

[4] = test system: Escherichia coli ATCC 25922; assay type: cell-based; details: ATCC 25922
How it was run: as §2

A. baumannii MDR = assay type: cell-based, Acinetobacter baumannii; details: A. baumannii MDR clinical isolate
Experimental: as §1

E. coli ATCC 25922 MCR-1 = assay type: cell-based, Escherichia coli; details: E. coli ATCC 25922 MCR-1 (colistin resistant)
Experimental: as §1
(§3) In the table above, “MCR” denotes that one of the MCR family of genes, which confers colistin resistance, is present in the bacterial strain. Thus, E. coli ATCC 25922 MCR-1, E. coli MCR-1 and E. coli EQAS MCR-2 are each colistin resistant. […] Therefore, laterocidamide may overcome some of the challenges faced due to antibiotic resistance.

E. coli MCR-1 = assay type: cell-based, Escherichia coli; details: E. coli MCR-1 clinical isolate (colistin resistant)
Experimental: as §1, §3

E. coli EQAS MCR-2 = assay type: cell-based, Escherichia coli; details: E. coli EQAS MCR-2 clinical isolate (colistin resistant)
Experimental: as §1, §3

HepG2 cells = assay: Cytotoxicity MTT assay; details: HepG2, 128 μg/mL, 24 h
Experimental: In addition to a single vehicle control, compounds (diluted from DMSO stock) were added to each well to obtain in a final 128 μg/mL concentration (max. final DMSO concentration 0.5%) for all compounds except for oritavancin which was administered at 50 μM. Incubation was done for 24 h at 37° C., 7% CO2. After the incubation, MTT was added to each well at a final concentration of 0.40 mg/mL. The plates were then incubated for 2 h at 37° C., 7% CO2. Medium was carefully removed via suction, and purple formazan crystals were resuspended in 100 μL DMSO. Absorbance was read at 570 nm using a Clariostar plate reader. The data was then analysed with GraphPad Prism software. Technical triplicates for each condition were used, along with biological duplicates.

E. coli = assay type: cell-based
E. Coli NCTC 12241 = assay type: cell-based
Experimental: as §1
were tested for inhibition of E. Coli NCTC 12241.

## CCC(C)CCC(=O)N[C@H](CO)C(=O)N[C@H](Cc1ccc(O)cc1)C(=O)N[C@H](Cc1c[nH]c2ccccc12)C(=O)N[C@H](CCCN)C(=O)N[C@@H](CCCN)C(=O)NCC(=O)N[C@H](CCCN)C(=O)N[C@@H](Cc1c[nH]c2ccccc12)C(=O)N[C@H]1CNC(=O)CNC(=O)[C@H](CO)NC(=O)CNC(=O)[C@H]([C@@H](C)CC)NC1=O (stereo partly drawn) [Dap9-Relacidamide A] ({Hexanoyl(4ξ-Me)}-[dS][dY][dW][dOrn][Orn]G[dOrn]W[Dap]IGSG; lactam 9-C)
P. aeruginosa PAO1
  Minimum inhibitory concentration (MIC): 1 to 2 mg/L
P. aeruginosa M-120
  Minimum inhibitory concentration (MIC): 1 to 2 mg/L
P. aeruginosa NRZ-03961
  Minimum inhibitory concentration (MIC): 2 to 4 mg/L
A. baumannii 2018-006
  Minimum inhibitory concentration (MIC): 2 to 4 mg/L
A. baumannii ATCC 17978
  Minimum inhibitory concentration (MIC): 4 mg/L (≈ 2.61 µM)
K. pneumoniae JS-123
  Minimum inhibitory concentration (MIC): 1 mg/L (≈ 0.652 µM)
K. pneumoniae 2048
  Minimum inhibitory concentration (MIC): 2 mg/L (≈ 1.3 µM)
K. pneumoniae ATCC 13883
  Minimum inhibitory concentration (MIC): 2 mg/L (≈ 1.3 µM)
K. pneumoniae ATCC 11228
  Minimum inhibitory concentration (MIC): 2 mg/L (≈ 1.3 µM)
[1]
  Minimum inhibitory concentration (MIC): 0.5 to 1 mg/L
[2]
  Minimum inhibitory concentration (MIC): 1 to 2 mg/L
[3]
  Minimum inhibitory concentration (MIC): >64 mg/L
[4]
  Minimum inhibitory concentration (MIC): 2 mg/L (≈ 1.3 µM)

## CC[C@H](C)[C@@H]1NC(=O)[C@@H](NC(=O)[C@H](Cc2c[nH]c3ccccc23)NC(=O)[C@@H](CCCN)NC(=O)CNC(=O)[C@H](CCCN)NC(=O)[C@@H](CCCN)NC(=O)[C@@H](Cc2c[nH]c3ccccc23)NC(=O)[C@@H](Cc2ccc(O)cc2)NC(=O)[C@@H](CO)NC(=O)CCCCCC(C)C)COC(=O)CNC(=O)CNC(=O)[C@H](CC(N)=O)NC1=O [Ser9-Laterocidine] ({Octanoyl(7-Me)}-[dS][dY][dW][dOrn][Orn]G[dOrn]WSINGG; ester 9-C)
A. baumannii MDR
  Minimum inhibitory concentration (MIC): 2 mg/L (≈ 1.26 µM)
E. coli ATCC 25922 MCR-1
  Minimum inhibitory concentration (MIC): 0.5 mg/L (≈ 0.314 µM)
E. coli MCR-1
  Minimum inhibitory concentration (MIC): 0.5 mg/L (≈ 0.314 µM)

## CC[C@@H](C)[C@H]1NC(=O)[C@H](NC(=O)[C@@H](Cc2c[nH]c3ccccc23)NC(=O)[C@H](CCCN)NC(=O)CNC(=O)[C@@H](CCCN)NC(=O)[C@H](CCCN)NC(=O)[C@H](Cc2c[nH]c3ccccc23)NC(=O)[C@H](Cc2ccc(O)cc2)NC(=O)[C@H](CO)NC(=O)CCCCCC(C)C)[C@H](C)OC(=O)CNC(=O)CNC(=O)[C@@H](CC(N)=O)NC1=O [ent- Laterocidine] ({Octanoyl(7-Me)}-SYW[Orn][dOrn]G[Orn][dW][dT][dI][dN]GG; ester 9-C)
A. baumannii MDR
  Minimum inhibitory concentration (MIC): 4 to 8 mg/L
E. coli ATCC 25922 MCR-1
  Minimum inhibitory concentration (MIC): 8 to 16 mg/L
E. coli EQAS MCR-2
  Minimum inhibitory concentration (MIC): 8 to 16 mg/L
E. coli MCR-1
  Minimum inhibitory concentration (MIC): 8 to 16 mg/L

## CCC(C)CCC(=O)N[C@H](CC(N)=O)C(=O)N[C@H](Cc1ccc(O)cc1)C(=O)N[C@H](Cc1c[nH]c2ccccc12)C(=O)N[C@H](CCCN)C(=O)N[C@@H](CCCN)C(=O)NCC(=O)N[C@H](CCCN)C(=O)N[C@@H](Cc1c[nH]c2ccccc12)C(=O)N[C@@H]1C(=O)N[C@@H]([C@@H](C)CC)C(=O)NCC(=O)N[C@@H](CO)C(=O)O[C@@H]1C (stereo partly drawn) [Brevicidine, brevicidine, reference compound] ({Hexanoyl(4ξ-Me)}-[dN][dY][dW][dOrn][Orn]G[dOrn]WTIGS; ester 9-C)
HepG2 cells
  cytotoxicity / cell viability: completely non-toxic

## CCC(C)CCC(=O)N[C@H](CC(N)=O)C(=O)N[C@H](Cc1ccc(O)cc1)C(=O)N[C@H](Cc1c[nH]c2ccccc12)C(=O)N[C@H](CCCN)C(=O)N[C@@H](CCCN)C(=O)NCC(=O)N[C@H](CCCN)C(=O)N[C@@H](Cc1c[nH]c2ccccc12)C(=O)N[C@H]1COC(=O)[C@H](CO)NC(=O)CNC(=O)[C@H]([C@@H](C)CC)NC1=O (single isomer, unassigned) [Ser9-Brevicidine]
P. aeruginosa PAO1
  Minimum inhibitory concentration (MIC): 2 to 4 mg/L
P. aeruginosa M-120
  Minimum inhibitory concentration (MIC): 2 mg/L (≈ 1.33 µM)
P. aeruginosa NRZ-03961
  Minimum inhibitory concentration (MIC): 4 mg/L (≈ 2.66 µM)
A. baumannii 2018-006
  Minimum inhibitory concentration (MIC): 2 mg/L (≈ 1.33 µM)
A. baumannii MDR
  Minimum inhibitory concentration (MIC): 1 to 2 mg/L
A. baumannii ATCC 17978
  Minimum inhibitory concentration (MIC): 2 mg/L (≈ 1.33 µM)
K. pneumoniae JS-123
  Minimum inhibitory concentration (MIC): 2 mg/L (≈ 1.33 µM)
K. pneumoniae 2048
  Minimum inhibitory concentration (MIC): 4 mg/L (≈ 2.66 µM)
K. pneumoniae ATCC 13883
  Minimum inhibitory concentration (MIC): 2 mg/L (≈ 1.33 µM)
K. pneumoniae ATCC 11228
  Minimum inhibitory concentration (MIC): 2 mg/L (≈ 1.33 µM)
E. coli ATCC 25922 MCR-1
  Minimum inhibitory concentration (MIC): 4 mg/L (≈ 2.66 µM)
E. coli EQAS MCR-2
  Minimum inhibitory concentration (MIC): 4 to 8 mg/L
E. coli MCR-1
  Minimum inhibitory concentration (MIC): 2 mg/L (≈ 1.33 µM)
[1]
  Minimum inhibitory concentration (MIC): 1 mg/L (≈ 0.664 µM)
[2]
  Minimum inhibitory concentration (MIC): 0.5 to 1 mg/L
[3]
  Minimum inhibitory concentration (MIC): >64 mg/L
[4]
  Minimum inhibitory concentration (MIC): 4 mg/L (≈ 2.66 µM)

## CCC(C)CCC(=O)N[C@H](CC(N)=O)C(=O)N[C@H](Cc1ccc(O)cc1)C(=O)N[C@H](Cc1c[nH]c2ccccc12)C(=O)N[C@H](CCCN)C(=O)N[C@@H](CCCN)C(=O)NCC(=O)N[C@H](CCCN)C(=O)N[C@@H](Cc1c[nH]c2ccccc12)C(=O)N[C@@H](CN)C(=O)N[C@H](C(=O)NCC(N)=O)[C@@H](C)CC (stereo partly drawn) [Und(9-Dap)-NH2] ({Hexanoyl(4ξ-Me)}-[dN][dY][dW][dOrn][Orn]G[dOrn]W[Dap]IG-NH2)
E. coli
  E. coli MIC: 3.1 mg/L
E. Coli NCTC 12241
  E. coli MIC: 3.1 mg/L

## CC[C@H](C)[C@@H]1NC(=O)[C@@H](NC(=O)[C@H](Cc2c[nH]c3ccccc23)NC(=O)[C@@H](CCCN)NC(=O)CNC(=O)[C@H](CCCN)NC(=O)[C@@H](CCCN)NC(=O)[C@@H](Cc2c[nH]c3ccccc23)NC(=O)[C@@H](Cc2ccc(O)cc2)NC(=O)[C@@H](CO)NC(=O)CCCCCC(C)C)[C@@H](C)OC(=O)CNC(=O)CNC(=O)[C@H](CC(N)=O)NC1=O [Laterocidine, laterocidine, reference compound] ({Octanoyl(7-Me)}-[dS][dY][dW][dOrn][Orn]G[dOrn]WTINGG; ester 9-C)
A. baumannii MDR
  Minimum inhibitory concentration (MIC): 1 mg/L (≈ 0.623 µM)
HepG2 cells
  cytotoxicity / cell viability: completely non-toxic
E. coli ATCC 25922 MCR-1
  Minimum inhibitory concentration (MIC): 2 mg/L (≈ 1.25 µM)
E. coli EQAS MCR-2
  Minimum inhibitory concentration (MIC): 1 mg/L (≈ 0.623 µM)
E. coli MCR-1
  Minimum inhibitory concentration (MIC): 0.5 mg/L (≈ 0.312 µM)
